Where two headings read alike, the source gives them in different places.
Tests used:
PDE4D2 = biological target: T1, PDE4D2 (Homo sapiens, UniProt Q08499); assay: Effect of compounds on PDE4D2 activity (fluorescence polarization kit); format: biochemical; details: class symbols
T1 construct: purchased BPS Bioscience 60345
Protocol: The effect of compounds on PDE4D2 activity was detected by a fluorescence polarization kit (BPS Bioscience, Catalog #60345). During the reaction, 12.5 μL of 0.272 ng/well of an enzyme (final concentration: 0.068 ng/well) and 12.5 μL of the compound diluted in a gradient manner (DMSO concentration: 4%) were first pre-incubated at room temperature for 15 minutes, the same volume of the enzyme at the same concentration and 12.5 μL of PDE buffer containing 4% DMSO were added to the positive control well, and 25 μL of PDE buffer containing 2% DMSO was added to the negative control well. After completion, 25 μL of […] FAM-Cyclic-3′,5′-AMP (final concentration: […]) was added to each well, fully mixed, and then incubated at room temperature with slow shaking for 30 minutes. The Binding Agent was diluted with the Binding Agent Diluent (cAMP) at a ratio of 1:100 for later use, 100 μl/well of the Binding Agent dilution was taken and added to all wells of the test plate and incubated at room temperature with slow shaking for 1 hour.
After the incubation was complete, BMG LRBTECH microplate reader was used for FP detection, with Excitation at 485 nm and Emission at 520 nm. FP was usually represented by mP value.
[formula] • I∥ (S520): fluorescence intensity in parallel direction • I⊥ (P520): fluorescence intensity in perpendicular direction • G: G factor=1
(§1) [formula] • mP(sample): mP of the test compound in a reaction well • mP(negative control): mP in the negative control well • mP(positive control): mP in the positive control well
(§2) According to the calculated inhibition rate at each concentration, the IC50 value of each compound was calculated by GraphPad Prism 8 software.

PDE4B2 = biological target: T2, PDE4B2 (Homo sapiens, UniProt Q07343); assay: Effect of compounds on PDE4B2 activity (fluorescence polarization kit); format: biochemical
T2 construct: purchased BPS Bioscience 60343
Protocol: The effect of compounds on PDE4B2 activity was detected by a fluorescence polarization kit (BPS Bioscience, Catalog #60343). According to the instructions of the kit, FAM-Cyclic-3′,5′-AMP at a final concentration of […], 1 ng/well of PDE4B2 (PDE buffer was added to the negative control well), and a compound diluted in a gradient manner (PDE buffer containing 10% DMSO was added to the positive control well) were added to each well, fully mixed, and then reacted at room temperature for 1 h. The Binding Agent was diluted with the Binding Agent Diluent (cAMP) at a ratio of 1:100 for later use, the Binding Agent dilution was taken and added to the test plate at 50 μl/well and incubated at room temperature with slow shaking for 20 minutes. After the incubation was complete, Envision was used for FP detection, with Excitation at 480 nm and Emission at 535 nm. FP was usually represented by mP value.
[formula] • I∥ (S535): fluorescence intensity in parallel direction • I⊥ (P535): fluorescence intensity in perpendicular direction • G: G factor=1
as §1, §2

[1] = Inhibition of LPS-induced TNF-α release from human peripheral blood mononuclear cells in vitro; format: cell-based; details: PBMC, hPBMC, 100 ng/mL LPS, 4 h; for IC50: class symbols, read-out: Re IC50 (nM) (relative IC50), TNF-α induced by LPS; for Emax: read-out: Max inhibition (%)
Protocol: Normal human peripheral blood which was anticoagulated (citric acid anticoagulation) was collected, and hPBMCs were prepared by Ficoll-Paque PLUS (Cytiva, Cat #17144002, density 1.077 g/mL). The concentration of hPBMC cells was adjusted to 0.25×10^6 cells/mL with RPMI1640 medium and inoculated into a 96-well plate in an amount of 50000 cells per well. Subsequently, different concentrations of drugs were added for pre-incubation for 1 h (the DMSO final concentration was 0.1%, and the positive and negative control wells had the same volume of RPMI1640 containing 0.1% DMSO). After the pre-incubation was complete, 100 ng/mL LPS (SIGMA, L2630) was added to the compound and positive control wells, and the negative control well had the same volume of RPMI1640 containing 0.1% DMSO. Incubation was carried out for 4 h in an incubator at 37° C. and 5% CO2. The cell supernatant was collected, and the content of TNF-α in the supernatant sample was detected by human TNF-α Elisa quantitative test kit (Sino Biological, Cat #KIT10602). The IC50 value was calculated using GraphPad Prism software.

[2] = Pharmacokinetic test in mice; format: in vivo, ICR mice
Protocol: 5.1 Experimental animals: Male ICR mice, 20-25 g, 6 mice/compound. Purchased from Chengdu Ddossy Experimental Animals Co., Ltd.
5.2 Experimental design: On the day of the experiment, 42 ICR mice were randomly grouped according to their body weights. The animals were fasted with water available for 12-14 h one day before administration and fed 4 h after administration.
Before and after administration, 0.06 mL of blood was taken from the orbit under isoflurane anesthesia and placed in an EDTAK2 centrifuge tube for centrifugation at 5000 rpm at 4-C for 10 min, followed by plasma collection. The blood collection time points for the intravenous group and intragastric group were both 0 m, 5 mi, 15 mi, 30 mi, 1 h, 2 h, 4 h, 6 h, 8 h, and 24 h. Before analysis and detection, all the samples were stored at −80° C., and the samples were subjected to quantitative analysis using LC-MS/MS.

[3] = class symbols, read-out: PDE4B2 IC50
[4] = male, ICR, mouse, iv, plasma, i.v. (5 mg/kg)
[5] = male, ICR, mouse, po, plasma, i.g. (10 mg/kg)

T1 sequence (Q08499 303-809): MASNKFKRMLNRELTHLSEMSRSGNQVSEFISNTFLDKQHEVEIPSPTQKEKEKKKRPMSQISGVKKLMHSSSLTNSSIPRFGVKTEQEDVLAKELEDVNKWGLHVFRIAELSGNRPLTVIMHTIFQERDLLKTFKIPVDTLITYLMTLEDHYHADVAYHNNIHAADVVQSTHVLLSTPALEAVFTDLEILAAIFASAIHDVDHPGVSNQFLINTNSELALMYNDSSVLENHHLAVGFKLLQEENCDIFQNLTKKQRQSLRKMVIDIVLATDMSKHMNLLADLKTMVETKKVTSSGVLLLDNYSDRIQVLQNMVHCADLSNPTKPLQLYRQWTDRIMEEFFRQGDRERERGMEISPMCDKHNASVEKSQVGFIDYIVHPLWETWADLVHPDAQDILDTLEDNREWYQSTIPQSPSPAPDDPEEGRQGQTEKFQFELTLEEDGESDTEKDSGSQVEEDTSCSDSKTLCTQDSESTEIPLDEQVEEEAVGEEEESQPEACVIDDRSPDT
T2 sequence (Q07343 1-564 isoform Q07343-2): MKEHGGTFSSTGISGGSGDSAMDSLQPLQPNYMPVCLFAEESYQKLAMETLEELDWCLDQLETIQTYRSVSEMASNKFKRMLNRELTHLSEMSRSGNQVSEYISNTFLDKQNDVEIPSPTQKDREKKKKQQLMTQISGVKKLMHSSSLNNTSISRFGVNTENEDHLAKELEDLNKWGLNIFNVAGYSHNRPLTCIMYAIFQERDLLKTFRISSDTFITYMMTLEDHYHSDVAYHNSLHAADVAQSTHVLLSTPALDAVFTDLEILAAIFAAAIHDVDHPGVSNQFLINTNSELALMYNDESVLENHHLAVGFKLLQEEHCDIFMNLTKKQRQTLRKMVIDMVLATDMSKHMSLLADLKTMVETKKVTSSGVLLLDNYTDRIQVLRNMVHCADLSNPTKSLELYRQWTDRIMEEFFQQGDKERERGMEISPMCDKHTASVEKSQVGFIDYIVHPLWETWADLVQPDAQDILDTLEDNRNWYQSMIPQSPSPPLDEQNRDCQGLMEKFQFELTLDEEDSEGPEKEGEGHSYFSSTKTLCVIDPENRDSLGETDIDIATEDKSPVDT

| SMILES | IC50 (PDE4D2) | IC50 (PDE4B2; [3]) | IC50 [1] | Emax [1] | also measured |
| --- | --- | --- | --- | --- | --- |
| CC(=O)N1CCN2c3ccc(-c4nc5c(c(NC6(CO)CCC6)n4)[S+]([O-])CC5)cc3OCC2C1 (single isomer, unassigned) [Compound 78-1] | – | 10 to 50 nM | < 10 nM | 61.2% | – |
| [O-][S@+]1CCc2nc(N3CCC(c4ccc5c(c4)CC5)CC3)nc(NC3(CO)CCC3)c21 [Compound 8] | 10 to 50 nM | 10 to 50 nM | – | – | – |
| [O-][S@+]1CCc2nc(N3CCC(c4ccc5c(c4)CCC5)CC3)nc(NC3(CO)CCC3)c21 [Compound 9] | 10 to 50 nM | – | – | – | – |
| [O-][S@+]1CCc2nc(N3CC4(CC(c5ccc(Cl)cc5)C4)C3)nc(NC3(CO)CCC3)c21 [Compound 10] | 10 to 50 nM | 10 to 50 nM | – | – | – |
| [O-][S@+]1CCc2nc(C3=CCN(c4ncc(Cl)cn4)CC3)nc(NC3(CO)CCC3)c21 [Compound 32] | 10 to 50 nM | – | – | – | – |
| [O-][S@+]1CCc2nc(N3CCC(c4ccc(Cl)cc4)=C(F)C3)nc(NC3(CO)CCC3)c21 [Compound 43] | 10 to 50 nM | < 10 nM | – | – | – |
| N#Cc1cnc(C2=CCN(c3nc4c(c(NC5(CO)CCC5)n3)[S@+]([O-])CC4)CC2)nc1 [Compound 50] | 10 to 50 nM | 10 to 50 nM | – | – | – |
| [O-][S@+]1CCc2nc(N3CC=C(c4cccc(S(F)(F)(F)(F)F)c4)CC3)nc(NC3(CO)CCC3)c21 [Compound 51] | 10 to 50 nM | < 10 nM | – | – | – |
| [O-][S@+]1CCc2nc(N3CC=C(c4cccc(SC(F)(F)F)c4)CC3)nc(NC3(CO)CCC3)c21 [Compound 52] | 10 to 50 nM | – | – | – | – |
| C[Si]1(C)CCN(c2cnc(C3=CCN(c4nc5c(c(NC6(CO)CCC6)n4)[S@+]([O-])CC5)CC3)nc2)CC1 [Compound 54] | < 10 nM | < 10 nM | 10 to 50 nM | 78.4% | – |
| C#Cc1cnc(N2CCN(c3nc4c(c(NC5(CO)CCC5)n3)[S+]([O-])CC4)CC2)nc1 (stereo not shown) [Compound 57] | 10 to 50 nM | 10 to 50 nM | – | – | – |
| CP(C)(=O)c1cnc(C2=CCN(c3nc4c(c(NC5(CO)CCC5)n3)[S@+]([O-])CC4)CC2)nc1 [Compound 59] | 10 to 50 nM | 10 to 50 nM | – | – | – |
| Cc1coc(C2=CCN(c3nc4c(c(NC5(CO)CCC5)n3)[S@+]([O-])CC4)CC2)n1 [Compound 60] | 10 to 50 nM | 10 to 50 nM | – | – | – |
| N#CC1(c2cnc(C3=CCN(c4nc5c(c(NC6(CO)CCC6)n4)[S@+]([O-])CC5)CC3)nc2)CC1 [Compound 64] | 10 to 50 nM | < 10 nM | < 10 nM | 70.8% | – |
| [O-][S@+]1CCc2nc(N3Cc4cc5c(cc4C3)CCC5)nc(NC3(CO)CCC3)c21 [Compound 69] | 10 to 50 nM | < 10 nM | 50 to 100 nM | 74.4% | – |
| CP(C)(=O)c1ccnc(C2=CCN(c3nc4c(c(NC5(CO)CCC5)n3)[S@+]([O-])CC4)CC2)n1 [Compound 71] | 10 to 50 nM | 10 to 50 nM | – | – | – |
| [O-][S@+]1CCc2nc(N3CC=C(c4ncc5c(n4)COB5O)CC3)nc(NC3(CO)CCC3)c21 [Compound 79] | 10 to 50 nM | < 10 nM | < 10 nM | 61.5% | – |

More lines, main results first:

| IC50 (PDE4D2) | IC50 (PDE4B2; [3]) | IC50 [1] | SMILES | Emax [1] | also measured |
| --- | --- | --- | --- | --- | --- |
| < 10 nM | < 10 nM | 10 to 50 nM | N#Cc1ccc2c(c1)OCC1CN(c3nc4c(c(NC5(CO)CCC5)n3)[S+]([O-])CC4)CCN21 (single isomer, unassigned) [Compound 74-1] | 72.4% | – |
| < 10 nM | < 10 nM | – | CC1CN(c2ccc3c(c2)OCC2CN(c4nc5c(c(NC6(CO)CCC6)n4)[S@+]([O-])CC5)CCN32)C1 (single isomer, unassigned) [Compound 81-2] | – | – |
| < 10 nM | < 10 nM | – | [O-][S@+]1CCc2nc(N3CC=C(c4ccc(Cl)cc4)CC3)nc(NC3(CO)CCC3)c21 [Compound 1] | – | F ([2]; i.g. (10 mg/kg)): 76.2 ± 4.7%; AUC(0-t) [2, 4]: 8660 ± 759 ng·h/mL; clearance [2, 4]: 4.55 ± 0.46 mL/min/kg; half-life [2, 4]: 6.17 ± 0.71 h; Vd ([2]; male, ICR, mouse, iv, plasma, i.v. (5 mg/kg), read-out: Vdss): 2.07 ± 0.2 L/kg; AUC(0-t) [2, 5]: 26400 ± 1640 ng·h/mL; half-life [2, 5]: 15.7 ± 4.1 h; IC50 (PDE4B2; values in text, read-out: IC50 against PDE4B2): 2.45 nM |
| 10 to 50 nM | 10 to 50 nM | – | [O-][S@+]1CCc2nc(N3CC=C(c4ccc(Cl)cc4)CCC3)nc(NC3(CO)CCC3)c21 [Compound 4] | – | – |
| < 10 nM | 10 to 50 nM | – | [O-][S@+]1CCc2nc(N3C[C@H]4CN(c5ccc(Cl)cc5)C[C@H]4C3)nc(NC3(CO)CCC3)c21 [Compound 6] | – | – |
| < 10 nM | – | – | [O-][S+]1CCc2nc(N3CCC4=C(CCc5cc(Cl)ccc54)C3)nc(NC3(CO)CCC3)c21 (stereo not shown) [Compound 30] | – | – |
| < 10 nM | < 10 nM | – | [O-][S+]1CCc2nc(N3CC=C(c4ncc(C5CC5)cn4)CC3)nc(NC3(CO)CCC3)c21 (stereo not shown) [Compound 53] | – | – |
| < 10 nM | < 10 nM | 10 to 50 nM | Cc1nnc(C2=CCN(c3nc4c(c(NC5(CO)CCC5)n3)[S@+]([O-])CC4)CC2)o1 [Compound 55] | 67.2% | – |
| < 10 nM | < 10 nM | – | [O-][S@+]1CCc2nc(N3CC=C(c4nc5ccccc5s4)CC3)nc(NC3(CO)CCC3)c21 [Compound 56] | – | – |
| < 10 nM | < 10 nM | – | [O-][S@+]1CCc2nc(N3CC=C(c4nc5ccccc5o4)CC3)nc(NC3(CO)CCC3)c21 [Compound 58] | – | – |
| < 10 nM | < 10 nM | – | CP(C)(=O)c1cccc(C2=CCN(c3nc4c(c(NC5(CO)CCC5)n3)[S@+]([O-])CC4)CC2)c1 [Compound 63] | – | – |
| < 10 nM | < 10 nM | 10 to 50 nM | [O-][S@+]1CCc2nc(N3C[C@H]4CN(c5ncc6c(n5)CC6)C[C@H]4C3)nc(NC3(CO)CCC3)c21 [Compound 65] | 82% | – |
| < 10 nM | < 10 nM | 10 to 50 nM | [O-][S@+]1CCc2nc(N3CC=C(c4ccc5c(c4)COB5O)CC3)nc(NC3(CO)CCC3)c21 [Compound 66] | 79.3% | – |
| < 10 nM | < 10 nM | < 10 nM | C#Cc1ccc(C2=CCN(c3nc4c(c(NC5(CO)CCC5)n3)[S@+]([O-])CC4)CC2)nc1 [Compound 70] | 70.5% | – |
| < 10 nM | < 10 nM | < 10 nM | CC#Cc1cnc(C2=CCN(c3nc4c(c(NC5(CO)CCC5)n3)[S@+]([O-])CC4)CC2)nc1 [Compound 76] | 73.8% | – |
| < 10 nM | < 10 nM | – | CC#Cc1ccc(C2=CCN(c3nc4c(c(NC5(CO)CCC5)n3)[S@+]([O-])CC4)CC2)nc1 [Compound 82] | – | – |

Source: patent publication US20250326765A1, “PDE4B INHIBITOR AND USE THEREOF” (XIZANG HAISCO PHARMACEUTICAL CO., LTD., priority 2022, published 2025)
